Data set [1] is described as follows: Equilibrium solubility of the compound. Type of data set: physicochemical.
Data set [2] is described as follows: Intrinsic clearance in human liver microsomes. Type of data set: ADME. Particulars: read-out: CLH.
In data set [3] the target is Transient receptor potential cation channel subfamily M member 8 (Homo sapiens, UniProt Q7Z2W7). In words: Antagonist activity at human TRPM8 expressed in HEK293 cells assessed as inhibition of menthol induced Ca2+ influx. Type of data set: cell-based.
Transient receptor potential cation channel subfamily M member 8 (Homo sapiens, UniProt Q7Z2W7), sequence (Q7Z2W7 whole entry): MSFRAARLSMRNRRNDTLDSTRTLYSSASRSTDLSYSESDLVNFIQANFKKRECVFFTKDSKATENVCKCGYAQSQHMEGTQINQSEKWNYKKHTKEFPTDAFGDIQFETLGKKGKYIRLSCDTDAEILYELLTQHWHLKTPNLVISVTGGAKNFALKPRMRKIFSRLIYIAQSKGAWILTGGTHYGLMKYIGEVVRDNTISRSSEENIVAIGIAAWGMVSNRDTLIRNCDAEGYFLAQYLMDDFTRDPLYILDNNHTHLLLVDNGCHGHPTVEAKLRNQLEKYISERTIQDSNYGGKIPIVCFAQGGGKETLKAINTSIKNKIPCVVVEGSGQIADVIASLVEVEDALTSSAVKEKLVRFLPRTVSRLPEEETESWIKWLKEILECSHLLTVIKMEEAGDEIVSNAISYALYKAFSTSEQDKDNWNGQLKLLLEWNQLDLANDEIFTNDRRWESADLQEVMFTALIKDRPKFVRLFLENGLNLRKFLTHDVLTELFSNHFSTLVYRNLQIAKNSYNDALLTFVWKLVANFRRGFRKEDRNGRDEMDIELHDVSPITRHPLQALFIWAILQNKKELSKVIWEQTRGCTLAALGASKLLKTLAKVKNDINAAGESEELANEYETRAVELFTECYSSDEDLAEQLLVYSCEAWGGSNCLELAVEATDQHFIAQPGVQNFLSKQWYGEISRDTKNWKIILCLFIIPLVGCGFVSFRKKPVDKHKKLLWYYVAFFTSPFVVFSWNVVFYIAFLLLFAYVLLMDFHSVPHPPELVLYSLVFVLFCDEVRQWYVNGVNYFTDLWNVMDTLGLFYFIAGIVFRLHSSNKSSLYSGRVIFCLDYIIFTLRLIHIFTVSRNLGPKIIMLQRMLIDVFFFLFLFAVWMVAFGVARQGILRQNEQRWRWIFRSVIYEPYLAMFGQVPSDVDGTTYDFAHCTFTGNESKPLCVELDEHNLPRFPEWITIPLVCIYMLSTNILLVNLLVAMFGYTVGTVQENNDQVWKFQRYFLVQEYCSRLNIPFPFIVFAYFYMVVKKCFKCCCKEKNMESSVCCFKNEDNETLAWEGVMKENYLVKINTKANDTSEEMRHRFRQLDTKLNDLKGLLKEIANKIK
Data set [4] concerns the target Transient receptor potential cation channel subfamily V member 1 (Rattus norvegicus, UniProt O35433). Nature of the data set: Antagonist activity at rat TRPV1 expressed in HEK293 cells assessed as inhibition of capsaicin-induced Ca2+ influx. Type of data set: cell-based.
The target in data set [5] is Transient receptor potential cation channel subfamily A member 1 (Homo sapiens, UniProt O75762). Nature of the data set: Antagonist activity at human TRPA1 expressed in HEK293 cells assessed as inhibition of AITC-induced Ca2+ influx. Type of data set: cell-based.
Transient receptor potential cation channel subfamily A member 1 (Homo sapiens, UniProt O75762), sequence (O75762 whole entry): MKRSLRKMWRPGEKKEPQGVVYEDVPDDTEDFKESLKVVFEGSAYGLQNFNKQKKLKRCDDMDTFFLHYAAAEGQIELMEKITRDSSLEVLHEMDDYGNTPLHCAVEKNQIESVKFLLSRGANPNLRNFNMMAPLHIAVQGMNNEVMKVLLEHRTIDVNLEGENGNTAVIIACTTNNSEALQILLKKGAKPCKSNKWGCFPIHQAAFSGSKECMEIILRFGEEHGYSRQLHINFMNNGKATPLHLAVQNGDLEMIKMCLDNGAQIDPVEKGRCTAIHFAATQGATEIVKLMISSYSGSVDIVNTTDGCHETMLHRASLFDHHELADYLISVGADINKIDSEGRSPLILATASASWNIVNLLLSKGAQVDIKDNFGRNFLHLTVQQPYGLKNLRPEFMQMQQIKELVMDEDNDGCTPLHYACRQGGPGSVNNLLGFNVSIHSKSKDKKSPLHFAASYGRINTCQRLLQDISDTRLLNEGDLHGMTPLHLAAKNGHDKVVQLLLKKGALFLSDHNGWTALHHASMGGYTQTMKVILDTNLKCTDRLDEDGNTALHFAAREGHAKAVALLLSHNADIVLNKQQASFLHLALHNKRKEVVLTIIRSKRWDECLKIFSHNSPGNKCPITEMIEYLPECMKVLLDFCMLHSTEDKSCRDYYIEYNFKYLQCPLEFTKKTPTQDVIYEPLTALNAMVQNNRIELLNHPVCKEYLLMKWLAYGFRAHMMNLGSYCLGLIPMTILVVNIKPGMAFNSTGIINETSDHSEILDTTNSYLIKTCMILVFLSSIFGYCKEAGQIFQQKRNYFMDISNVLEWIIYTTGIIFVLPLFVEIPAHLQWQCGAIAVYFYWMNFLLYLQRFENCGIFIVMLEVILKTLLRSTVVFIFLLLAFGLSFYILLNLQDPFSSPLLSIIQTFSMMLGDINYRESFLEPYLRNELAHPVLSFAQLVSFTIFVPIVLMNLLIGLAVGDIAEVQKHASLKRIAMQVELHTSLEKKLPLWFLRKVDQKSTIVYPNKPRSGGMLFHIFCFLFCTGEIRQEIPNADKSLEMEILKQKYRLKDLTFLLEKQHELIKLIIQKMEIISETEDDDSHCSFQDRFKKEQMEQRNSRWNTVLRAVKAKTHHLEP
For data set [6], the target named is Transient receptor potential cation channel subfamily A member 1 (Rattus norvegicus, UniProt Q6RI86). Nature of the data set: Antagonist activity at rat TRPA1 expressed in HEK293 cells assessed as inhibition of AITC-induced Ca2+ influx. Type of data set: cell-based.
Transient receptor potential cation channel subfamily A member 1 (Rattus norvegicus, UniProt Q6RI86), sequence (Q6RI86 whole entry): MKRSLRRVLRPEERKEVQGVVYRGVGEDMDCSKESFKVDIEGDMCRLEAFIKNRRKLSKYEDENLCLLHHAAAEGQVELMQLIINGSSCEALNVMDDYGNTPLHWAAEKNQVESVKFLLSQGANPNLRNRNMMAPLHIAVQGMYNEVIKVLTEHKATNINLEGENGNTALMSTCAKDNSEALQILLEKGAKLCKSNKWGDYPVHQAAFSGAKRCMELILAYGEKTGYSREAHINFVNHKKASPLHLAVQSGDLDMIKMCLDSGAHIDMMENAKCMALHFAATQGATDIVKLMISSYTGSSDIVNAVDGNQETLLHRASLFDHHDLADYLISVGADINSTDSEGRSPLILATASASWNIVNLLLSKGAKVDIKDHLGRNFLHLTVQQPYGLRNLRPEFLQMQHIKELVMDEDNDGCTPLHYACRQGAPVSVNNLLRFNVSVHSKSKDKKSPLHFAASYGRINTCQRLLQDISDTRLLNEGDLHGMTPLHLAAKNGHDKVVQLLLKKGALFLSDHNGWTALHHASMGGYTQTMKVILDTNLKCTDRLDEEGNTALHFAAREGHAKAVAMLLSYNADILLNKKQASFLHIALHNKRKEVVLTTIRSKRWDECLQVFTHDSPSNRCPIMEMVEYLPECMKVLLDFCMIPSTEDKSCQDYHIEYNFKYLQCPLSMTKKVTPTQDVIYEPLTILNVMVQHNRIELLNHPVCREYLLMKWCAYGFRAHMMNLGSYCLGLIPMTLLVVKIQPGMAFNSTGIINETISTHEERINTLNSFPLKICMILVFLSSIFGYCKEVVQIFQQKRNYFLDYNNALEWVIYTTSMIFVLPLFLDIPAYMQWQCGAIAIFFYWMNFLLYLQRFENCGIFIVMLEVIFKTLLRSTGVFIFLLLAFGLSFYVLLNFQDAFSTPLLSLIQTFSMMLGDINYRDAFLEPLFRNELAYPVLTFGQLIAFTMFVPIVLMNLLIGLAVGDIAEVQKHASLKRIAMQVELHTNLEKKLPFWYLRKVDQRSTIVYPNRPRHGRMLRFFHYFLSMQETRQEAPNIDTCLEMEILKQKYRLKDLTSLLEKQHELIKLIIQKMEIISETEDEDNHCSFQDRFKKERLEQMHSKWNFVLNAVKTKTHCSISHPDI
Data set [7] in a line: Oral bioavailability in rat at 3 mg/kg. Type of data set: ADME, organism-based. Particulars: in vivo.
Data set [8] addresses Transient receptor potential cation channel subfamily V member 4 (Homo sapiens, UniProt Q9HBA0). In words: Antagonist activity at human TRPV4 expressed in HEK293 cells assessed as inhibition of hypotonic solution-induced Ca2+ influx. Type of data set: cell-based.
In data set [9] the target is Transient receptor potential cation channel subfamily M member 8 (Rattus norvegicus, UniProt Q8R455). Nature of the data set: Antagonist activity at rat TRPM8 assessed as inhibition of menthol induced Ca2+ influx by cell-based assay.
Transient receptor potential cation channel subfamily M member 8 (Rattus norvegicus, UniProt Q8R455), sequence (Q8R455 whole entry): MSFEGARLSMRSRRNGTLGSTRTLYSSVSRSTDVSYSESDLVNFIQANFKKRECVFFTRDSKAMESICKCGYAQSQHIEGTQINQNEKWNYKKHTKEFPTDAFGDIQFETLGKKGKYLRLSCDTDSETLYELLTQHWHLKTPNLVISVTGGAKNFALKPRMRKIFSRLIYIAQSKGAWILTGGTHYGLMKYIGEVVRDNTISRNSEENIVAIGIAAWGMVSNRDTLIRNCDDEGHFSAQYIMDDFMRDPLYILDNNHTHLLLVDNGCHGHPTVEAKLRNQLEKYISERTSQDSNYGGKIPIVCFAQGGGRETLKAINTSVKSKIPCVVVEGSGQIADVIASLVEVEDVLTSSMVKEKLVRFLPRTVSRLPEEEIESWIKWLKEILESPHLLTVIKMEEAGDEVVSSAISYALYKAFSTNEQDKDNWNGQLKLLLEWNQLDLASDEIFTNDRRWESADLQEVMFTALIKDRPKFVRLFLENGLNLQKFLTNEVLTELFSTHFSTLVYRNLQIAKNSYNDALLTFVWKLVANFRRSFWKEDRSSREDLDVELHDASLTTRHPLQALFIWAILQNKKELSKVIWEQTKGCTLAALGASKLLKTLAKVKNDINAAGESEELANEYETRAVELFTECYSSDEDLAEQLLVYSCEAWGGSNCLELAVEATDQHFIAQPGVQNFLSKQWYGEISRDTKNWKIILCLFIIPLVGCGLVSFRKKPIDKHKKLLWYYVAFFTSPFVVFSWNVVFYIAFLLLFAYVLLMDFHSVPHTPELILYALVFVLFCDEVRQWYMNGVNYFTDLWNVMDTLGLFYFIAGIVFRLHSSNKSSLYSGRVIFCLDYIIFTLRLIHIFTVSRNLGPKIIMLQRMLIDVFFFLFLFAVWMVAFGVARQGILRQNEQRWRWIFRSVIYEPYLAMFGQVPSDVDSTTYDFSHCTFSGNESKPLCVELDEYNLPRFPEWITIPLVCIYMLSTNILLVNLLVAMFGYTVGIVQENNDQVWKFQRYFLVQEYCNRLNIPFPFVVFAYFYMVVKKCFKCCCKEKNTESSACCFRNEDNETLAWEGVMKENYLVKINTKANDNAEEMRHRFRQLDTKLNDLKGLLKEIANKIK
Data set [10] is described as follows: Fraction unbound in rat plasma. Type of data set: ADME, cell-free.
The nature of data set [11]: Cmax in rat at 3 mg/kg, po. Type of data set: ADME, organism-based. To be noted: in vivo. The arrangement: dose 3 mg/kg, route oral.
Data set [12] concerns the target Transient receptor potential cation channel subfamily V member 1 (Homo sapiens, UniProt Q8NER1). Nature of the data set: Antagonist activity at human TRPV1 expressed in HEK293 cells assessed as inhibition of capsaicin-induced Ca2+ influx. Type of data set: cell-based.
A short description of data set [13]: Intrinsic clearance in rat liver microsomes. Type of data set: ADME. To be noted: read-out: CLH.
The next data set has as its system Rattus norvegicus. Nature of the data set: Antiallodynic activity in icilin-induced wet-dog shake rat model compound administered po 1 hr prior to icilin challenge measured over 30 mins. Type of data set: functional.

In brackets after ≈: the same amount, converted by molar mass.

The solubility (thermodynamic) is the concentration in solution at equilibrium with solid. In general, IC50 refers to the midpoint of a concentration-inhibition curve. One may read the bioavailability as the share of a dose that reaches the circulation, judged against a reference dose that is usually intravenous. Usually fraction unbound stands for the share of the substance not bound to proteins or other matrix. Usually Cmax stands for the peak of the concentration-time curve. A word on the ED50: it is the dose that gives a 50% effect, or the effect in half of the subjects. A high value points to weaker potency.

Regarding `CN(C)C(=O)c1ccc(S(=O)(=O)N(Cc2ccccc2)c2ncc(C(F)(F)F)cc2Cl)cc1`, the solubility (thermodynamic) in data set [1] came to 37 µM (≈ 18.4 µg/mL). Besides, in data set [2], the CLint scaled was more than 168 mL/min/kg. In addition, the IC50 in data set [3] was 67 nM.

Consider `O=C(O)c1ccc(S(=O)(=O)N(Cc2ccc(OC(F)(F)F)cc2)c2ncc(C(F)(F)F)cc2Cl)cc1`, for which the CLint scaled was less than 7 mL/min/kg in data set [2] and less than 10.4 mL/min/kg in [13]. Besides, the IC50 in [4] is more than 3000 nM; in [5], more than 10000 nM; in [6], more than 10000 nM; in data set [8], more than 3000 nM; in data set [9], 5.8 nM; in data set [12], more than 10000 nM. For the same compound, in [3], the half-maximal inhibitory concentration (IC50) came out at 8.3 nM. The same compound came in with a bioavailability in [7] of 86%. Further, the fraction unbound in [10] turned out to be 0.0031. In data set [11], this compound came in with a Cmax of 2300 ng/mL. In the data set with Rattus norvegicus, this compound had an ED50 of 0.65 mg/kg.

In data set [1], `O=S(=O)(c1ccc(CO)cc1)N(Cc1ccccc1)c1ncc(C(F)(F)F)cc1Cl` showed a thermodynamic solubility of 35 µM (≈ 16 µg/mL). Besides, the CLint scaled in data set [2] is more than 168 mL/min/kg. The IC50 in data set [3] was 42 nM.

Consider `O=C(O)c1ccc(S(=O)(=O)N(CCc2ccccc2)c2ncc(C(F)(F)F)cc2Cl)cc1`, for which, in [3], the IC50 was found to be 762 nM.

In the case of `O=C(O)c1ccc(S(=O)(=O)N(Cc2ccccc2)c2ncccc2Cl)cc1`, the IC50 in data set [3] was determined as 9860 nM.

On to `O=C(O)c1ccc(S(=O)(=O)N(Cc2ccccc2OC(F)(F)F)c2ncc(C(F)(F)F)cc2Cl)cc1`, for which the CLint scaled in data set [2] is less than 7 mL/min/kg. Besides, the IC50 in [3] amounted to 96 nM.

As for `N#Cc1cc(C(F)(F)F)cnc1N(Cc1ccccc1)S(=O)(=O)c1ccc(C(=O)O)cc1`, in data set [3], the IC50 stood at 2470 nM.

As for `O=C(O)c1ccc(S(=O)(=O)N(CCCc2ccccc2)c2ncc(C(F)(F)F)cc2Cl)cc1`, the CLint scaled in data set [2] worked out at 81 mL/min/kg. Also, the IC50 in data set [3] came to 49 nM.

With `O=C(O)c1ccc(S(=O)(=O)N(Cc2ccc(C(F)(F)F)cc2)c2ncc(Cl)cc2Cl)cc1`, the CLint scaled in data set [2] was less than 7 mL/min/kg; in data set [13], less than 10.4 mL/min/kg. In addition, the concentration for half-maximal inhibition (IC50) is 9 nM in data set [9] and 11 nM in [3]. In data set [10], the free fraction (fraction unbound) worked out at 0.011. Besides, in the data set with Rattus norvegicus, it took a dose of 1.3 mg/kg to reach the 50% effect level (ED50).

As for `Cc1cc(C(F)(F)F)cnc1N(Cc1ccccc1)S(=O)(=O)c1ccc(C(=O)O)cc1`, the IC50 in data set [3] turned out to be 736 nM.

For the compound `O=C(O)c1ccc(S(=O)(=O)N(Cc2cccc(C(F)(F)F)c2)c2ncc(C(F)(F)F)cc2Cl)cc1`, the CLint scaled in data set [2] is less than 7 mL/min/kg. Also, in [3], the IC50 is 41 nM.

On to `O=C(O)c1ccc(S(=O)(=O)N(CCN2CCOCC2)c2ncc(C(F)(F)F)cc2Cl)cc1`, for which, in data set [2], the CLint scaled is less than 7 mL/min/kg. For the same compound, in data set [3], the IC50 came out at 3720 nM.

With `Cc1c(N(Cc2ccc(C(F)(F)F)c(F)c2)S(=O)(=O)c2ccc(C(=O)O)cc2)sc2ccccc12`, the CLint scaled in data set [2] worked out at 8.5 mL/min/kg. Besides, the IC50 in [3] came to 6.2 nM.

`O=C(O)c1ccc(S(=O)(=O)N(Cc2ccccc2)c2ncc(C(F)(F)F)cc2Cl)cc1` registered a thermodynamic solubility in [1] of 185 µM (≈ 87.1 µg/mL). Besides, the CLint scaled in data set [2] is less than 7 mL/min/kg. Besides, in [3], the IC50 stood at 61 nM.

Values taken from ChEMBL document CHEMBL3351889, “Identification of a novel 2-pyridyl-benzensulfonamide derivative, RQ-00203078, as a selective and orally active TRPM8 antagonist” (Bioorg Med Chem Lett, 2014).
